Experimental data published in ChEMBL document CHEMBL1125558 (J Med Chem, 1992).

Legend:
Type in all cases: functional
Rattus norvegicus [1] = assay: Mean responses per minute at dose 10 mg/kg evaluated by temporal tests in trained rats(post injection interval 15 min)
Rattus norvegicus [2] = assay: Percent response at dose 10 mg/kg evaluated by temporal tests in trained rats(post injection interval 15 min)
Rattus norvegicus [3] = assay: Number of animals(n) completing 20 responses on either lever out of the number of animals tested (N) at dose 2.5 mg/kg evaluated by dose-response tests in trained rats(post injection interval 15 min); n/N=7/7
Rattus norvegicus [4] = assay: Number of animals(n) completing 20 responses on either lever out of the number of animals tested (N) at dose 10 mg/kg evaluated by temporal tests in trained rats(post injection interval 15 min); n/N=7/7
Rattus norvegicus [5] = assay: Percent response at dose 10 mg/kg evaluated by temporal tests in trained rats(post injection interval 5 min)
Rattus norvegicus [6] = assay: Mean responses per minute at dose 10 mg/kg evaluated by temporal tests in trained rats(post injection interval 30 min)
Rattus norvegicus [7] = assay: Percent response at dose 10 mg/kg evaluated by temporal tests in trained rats(post injection interval 30 min)
Rattus norvegicus [8] = assay: Mean responses per minute at dose 10 mg/kg evaluated by temporal tests in trained rats(post injection interval 60 min)
Rattus norvegicus [9] = assay: Percent response at dose 10 mg/kg evaluated by dose-response tests in trained rats(post injection interval 15 min)
Rattus norvegicus [10] = assay: Percent response at dose 10 mg/kg evaluated by temporal tests in trained rats(post injection interval 60 min)
Rattus norvegicus [11] = assay: Mean responses per minute at dose 10 mg/kg evaluated by temporal tests in trained rats(post injection interval 5 min)
Rattus norvegicus [12] = assay: Percent response at dose 5 mg/kg evaluated by dose-response tests in trained rats(post injection interval 15 min)
Rattus norvegicus [13] = assay: Percent response at dose 1.25 mg/kg evaluated by dose-response tests in trained rats(post injection interval 15 min)
Rattus norvegicus [14] = assay: Number of animals(n) completing 20 responses on either lever out of the number of animals tested (N) at dose 5 mg/kg evaluated by dose-response tests in trained rats; n/N=7/7
Rattus norvegicus [15] = assay: Number of animals(n) completing 20 responses on either lever out of the number of animals tested (N) at dose 1.25 mg/kg evaluated by dose-response tests in trained rats(post injection interval 15 min); n/N=7/7
Rattus norvegicus [16] = assay: Mean responses per minute at dose 10 mg/kg evaluated by temporal tests in trained rats(post injection interval 120 min)
Rattus norvegicus [17] = assay: Mean responses per minute at dose 1.25 mg/kg evaluated by dose-response tests in trained rats(post injection interval 15 min)
Rattus norvegicus [18] = assay: Percent response at dose 10 mg/kg evaluated by temporal tests in trained rats(post injection interval 120 min)
Rattus norvegicus [19] = assay: Number of animals(n) completing 20 responses on either lever out of the number of animals tested (N) at dose 10 mg/kg evaluated by temporal tests in trained rats(post injection interval 5 min); n/N=7/7
Rattus norvegicus [20] = assay: Mean responses per minute at dose 2.5 mg/kg evaluated by dose-response tests in trained rats(post injection interval 15 min)
Rattus norvegicus [21] = assay: Number of animals(n) completing 20 responses on either lever out of the number of animals tested (N) at dose 10 mg/kg evaluated by dose-response tests in trained rats(post injection interval 15 min); n/N=7/7
Rattus norvegicus [22] = assay: Number of animals(n) completing 20 responses on either lever out of the number of animals tested (N) at dose 10 mg/kg evaluated by temporal tests in trained rats(post injection interval 120 min); n/N=7/7
Rattus norvegicus [23] = assay: Number of animals(n) completing 20 responses on either lever out of the number of animals tested (N) at dose 0.62 mg/kg evaluated by dose-response tests in trained rats(post injection interval 15 min); n/N=7/7
Rattus norvegicus [24] = assay: Mean responses per minute at dose 10 mg/kg evaluated by dose-response tests in trained rats(post injection interval 15 min)
Rattus norvegicus [25] = assay: Number of animals(n) completing 20 responses on either lever out of the number of animals tested (N) at dose 10 mg/kg evaluated by temporal tests in trained rats(post injection interval 30 min); n/N=7/7
Rattus norvegicus [26] = assay: Mean responses per minute at dose 5 mg/kg evaluated by dose-response tests in trained rats(post injection interval 15 min)
Rattus norvegicus [27] = assay: Percent response at dose 2.5 mg/kg evaluated by dose-response tests in trained rats(post injection interval 15 min)
Rattus norvegicus [28] = assay: Number of animals(n) completing 20 responses on either lever out of the number of animals tested (N) at dose 10 mg/kg evaluated by temporal tests in trained rats(post injection interval 60 min); n/N=7/7
Rattus norvegicus [29] = assay: Percent response at dose 0.62 mg/kg evaluated by dose-response tests in trained rats(post injection interval 15 min)
Rattus norvegicus [30] = assay: Mean responses per minute at dose 0.62 mg/kg evaluated by dose-response tests in trained rats(post injection interval 15 min)

For COC(=O)[C@H]1[C@@H](OC(=O)c2ccccc2)C[C@@H]2CC[C@H]1N2C [COCAINE], the Rate response (Rattus norvegicus [1]) was 76 min⁻¹, the Drug response (Rattus norvegicus [2]) was 99% and the “No. resp animals / Total” value (Rattus norvegicus [3]) was 7 / 7. The “No. resp animals / Total” value (Rattus norvegicus [4]) was 7 / 7, the Drug response (Rattus norvegicus [5]) was 85% and the Rate response (Rattus norvegicus [6]) was 61 min⁻¹. For the same molecule, the Drug response (Rattus norvegicus [7]) was 100%, the Rate response (Rattus norvegicus [8]) was 23 min⁻¹ and the Drug response (Rattus norvegicus [9]) was 99%. For the same molecule, the Drug response (Rattus norvegicus [10]) was 81%, the Rate response (Rattus norvegicus [11]) was 28 min⁻¹ and the Drug response (Rattus norvegicus [12]) was 98%. For the same molecule, the Drug response (Rattus norvegicus [13]) was 44%, the “No. resp animals / Total” value (Rattus norvegicus [14]) was 7 / 7 and the n/N (Rattus norvegicus [15]) was 7 / 7. It also gave a Rate response (Rattus norvegicus [16]) of 28 min⁻¹, a Rate response (Rattus norvegicus [17]) of 21 min⁻¹ and a Drug response (Rattus norvegicus [18]) of 31%. For the same molecule, the “No. resp animals / Total” value (Rattus norvegicus [19]) was 7 / 7, the Rate response (Rattus norvegicus [20]) was 32 min⁻¹ and the “No. resp animals / Total” value (Rattus norvegicus [21]) was 7 / 7. For the same molecule, the “No. resp animals / Total” value (Rattus norvegicus [22]) was 7 / 7, the “No. resp animals / Total” value (Rattus norvegicus [23]) was 7 / 7 and the Rate response (Rattus norvegicus [24]) was 76 min⁻¹. For the same molecule, the “No. resp animals / Total” value (Rattus norvegicus [25]) was 7 / 7, the Rate response (Rattus norvegicus [26]) was 89 min⁻¹ and the Drug response (Rattus norvegicus [27]) was 61%. For the same molecule, the “No. resp animals / Total” value (Rattus norvegicus [28]) was 7 / 7, the Drug response (Rattus norvegicus [29]) was 6% and the Rate response (Rattus norvegicus [30]) was 27 min⁻¹.
